# How the values were obtained:
# Surface tension = assay type: physicochemical; conditions: pure
# Excerpt: Surface properties of betainyl amino alkyl(ene) methane sulfonates and alkyl(ene) betainate methane sulfonate surfactants are set forth below in Table 5. […] Comparative examples are provided by the GLUCOPON surfactants (commercially available from BASF, formerly known as Cognis) which are alkyl polyglucosides having a carbon length as indicated.
# Foamability = assay type: physicochemical; conditions: concentration at CMC, flow rate 14 l/min
# Excerpt: The surfactants of the invention also have foaming ability. This foaming ability is able to be effectively manipulated, i.e., foaming density increased, based on hydrocarbon chain length.
# [1] = Interfacial tension, emulsifying sunflower oil in water; assay type: physicochemical; conditions: purified
# [2] = Wetting properties, contact angles on treated substrates; assay type: physicochemical
# [3] = Viscosity (thickening and gelling); assay type: physicochemical; conditions: aqueous solution
# Excerpt: Table 15 below illustrates the thickening of GB stearic amine aqueous solution as a function of concentration and time.
# The examples of Table 15 are compounds present in water alone and, thus, the viscosity continues to change. After a certain point, the viscosity will plateau and not change anymore. If the surfactant is provided at a predetermined concentration, the desired viscosity will be reached right away and not continue to increase due to the stability provided. Thus, generally, as the surfactant concentration increases, so does the initial viscosity. Also over a period of time, the viscosity increases. The viscosity can be controlled to terminate the viscosity increase, i.e., achieve a pre-determined viscosity, by adding salts to the composition. Preferred salts are sodium chloride, potassium chloride, magnesium, chloride, and lithium chloride. Another feature of the invention is the ability to combine GB surfactants with natural polysaccharides to form gel and pseudoplastic viscous liquids or gels. Examples of polysaccharides are agar, carregenan, natural gum, pectin, gelatin, starch, cellulose derivatives, cellulose derived from wood pulp fiber, lignin, etc. […]
# [4] = aqueous solution; 20 seconds contact time; pure
# [5] = surfactant concentration 1 % w/w
# [6] = surfactant concentration 2 % w/w
# [7] = surfactant concentration 3 % w/w
# [8] = surfactant concentration 4 % w/w
# [9] = surfactant concentration 5 % w/w
# [10] = surfactant concentration 6 % w/w
Compound,Surface Tension @ CMC (Surface tension) [mN/m],IFT [1] [mN/m],"Contact angle on treated substrate, Enamel Tiles ([2]; surfactant conc. 1 % (w/w)) [°]","Contact angle on treated substrate, Glass ([2]; surfactant conc. 1 % (w/w)) [°]","Contact angle on treated substrate, Kitchen Soil ([2]; surfactant conc. 1 % (w/w)) [°]","Contact angle on treated substrate, Soap Scum ([2]; surfactant conc. 1 % (w/w)) [°]","Contact angle on treated substrate, Enamel Tiles ([2]; surfactant conc. 3 % (w/w)) [°]","Contact angle on treated substrate, Glass ([2]; surfactant conc. 3 % (w/w)) [°]","Contact angle on treated substrate, Kitchen Soil ([2]; surfactant conc. 3 % (w/w)) [°]","Contact angle on treated substrate, Soap Scum ([2]; surfactant conc. 3 % (w/w)) [°]",further results
"CCCCCCCCCCCCNC(=O)C[N+](C)(C)C.CS(=O)(=O)[O-] [GB Lauric amide, Betainyl amino dodecane methane sulfonate]",38,–,–,–,–,–,–,–,–,–,–
"CCCCCCCCCCCCCCNC(=O)C[N+](C)(C)C.CS(=O)(=O)[O-] [GB Myristic amide, Betainyl amino tetradecane methane sulfonate]",38,–,–,–,–,–,–,–,–,–,–
"CCCCCCCC/C=C\CCCCCCCCNC(=O)C[N+](C)(C)C.CS(=O)(=O)[O-] [GB Oleic amide C18:1) pure, (Z)-betainyl amino octadec-9-ene methane sulfonate, pure]",–,–,–,–,–,–,–,–,–,–,Foam density (Foamability): 18 g/L; Time t: the time to fill 2 liters (Foamability): 85 s
"CCCCCCCC/C=C\CCCCCCCCNC(=O)C[N+](C)(C)C.CS(=O)(=O)[O-] [GB Oleic amide, (Z)-betainyl amino octadec-9-ene methane sulfonate]",36,5.5,27.6,22.6,46.4,31.1,26.8,18.8,38.1,31.3,–
"CCCCCCCCCCCCCCCCNC(=O)C[N+](C)(C)C.CS(=O)(=O)[O-] [GB Palmitic amide, Betainyl amino hexadecane methane sulfonate]",37,–,–,–,–,–,–,–,–,–,–
"CCCCCCCCCCCCCCCCCCNC(=O)C[N+](C)(C)C.CS(=O)(=O)[O-] [GB Stearic amide, Betainyl amino octadecane methane sulfonate]",39,5.2,35.4,23.1,39.7,31.6,27.1,19.4,34.6,34.3,"Initial Viscosity [3, 5]: 120 cP; Viscosity after 15 days [3, 5]: 160 cP; Initial Viscosity [3, 6]: 160 cP; Viscosity after 15 days [3, 6]: 639 cP; Initial Viscosity [3, 7]: 160 cP; Viscosity after 15 days [3, 7]: 807 cP; Initial Viscosity [3, 8]: 2259 cP; Viscosity after 15 days [3, 8]: 3626 cP; Initial Viscosity [3, 9]: 3039 cP; Viscosity after 15 days [3, 9]: 6079 cP; Initial Viscosity [3, 10]: 5279 cP; Viscosity after 15 days [3, 10]: 8851 cP; Bathroom Soap Scum Solubilized [4]: 35%"

# Reference: patent US9909086B2, “Green glycine betaine derivative compounds and compositions containing same” (priority 2012, dated 2018)
